# Laboratory results as given in the NIST ThermoML archive (doi:10.1021/je0602824).
# Numbers after ± are expanded uncertainties.
# Assay: xn = mol fraction of the nth substance listed
# Settings: 101 kPa, Liquid
smiles,measurement,setting,value
CCOS(=O)(=O)[O-].CCn1cc[n+](C)c1 [1-ethyl-3-methylimidazolium ethyl sulfate] + O,mass density,"278.15 K, x2 = 0",1251.12 ± 3.3 kg/m3
same,viscosity,"278.15 K, x2 = 0",308 ± 46 mPa·s
same,viscosity,"278.15 K, x2 = 0.0001",308 ± 46 mPa·s
same,mass density,"278.15 K, x2 = 0.2112",1246.59 ± 2.9 kg/m3
same,viscosity,"278.15 K, x2 = 0.2245",150 ± 15 mPa·s
same,viscosity,"278.15 K, x2 = 0.4084",83 ± 5 mPa·s
same,mass density,"278.15 K, x2 = 0.4119",1239.56 ± 2.6 kg/m3
same,mass density,"278.15 K, x2 = 0.5939",1227.74 ± 2.3 kg/m3
same,viscosity,"278.15 K, x2 = 0.5976",45 ± 2 mPa·s
same,mass density,"278.15 K, x2 = 0.7669",1201.83 ± 2 kg/m3
same,viscosity,"278.15 K, x2 = 0.7675",22 ± 2 mPa·s
same,mass density,"278.15 K, x2 = 0.8487",1175.63 ± 1.7 kg/m3
same,mass density,"278.15 K, x2 = 0.9292",1120.63 ± 1.3 kg/m3
same,viscosity,"278.15 K, x2 = 0.9292",6 ± 2 mPa·s
same,mass density,"278.15 K, x2 = 0.9683",1066.86 ± 0.98 kg/m3
same,mass density,"278.15 K, x2 = 0.9916",1021.13 ± 0.68 kg/m3
same,mass density,"288.15 K, x2 = 0",1244.13 ± 3.3 kg/m3
same,viscosity,"288.15 K, x2 = 0",166 ± 17 mPa·s
same,mass density,"288.15 K, x2 = 0.2112",1239.79 ± 2.9 kg/m3
same,viscosity,"288.15 K, x2 = 0.2245",86 ± 5 mPa·s
same,viscosity,"288.15 K, x2 = 0.4084",49 ± 2 mPa·s
same,mass density,"288.15 K, x2 = 0.4119",1232.7 ± 2.5 kg/m3
same,mass density,"288.15 K, x2 = 0.5939",1220.8 ± 2.2 kg/m3
same,viscosity,"288.15 K, x2 = 0.5976",27 ± 2 mPa·s
same,mass density,"288.15 K, x2 = 0.7669",1194.85 ± 1.9 kg/m3
same,viscosity,"288.15 K, x2 = 0.7675",14 ± 2 mPa·s
same,mass density,"288.15 K, x2 = 0.8487",1168.83 ± 1.7 kg/m3
same,mass density,"288.15 K, x2 = 0.9292",1115.02 ± 1.3 kg/m3
same,viscosity,"288.15 K, x2 = 0.9292",5 ± 2 mPa·s
same,mass density,"288.15 K, x2 = 0.9683",1063.25 ± 0.96 kg/m3
same,mass density,"288.15 K, x2 = 0.9916",1019.46 ± 0.67 kg/m3
same,mass density,"298.15 K, x2 = 0",1237.37 ± 3.2 kg/m3
same,viscosity,"298.15 K, x2 = 0",95 ± 6 mPa·s
same,mass density,"298.15 K, x2 = 0.2112",1232.99 ± 2.8 kg/m3
same,viscosity,"298.15 K, x2 = 0.2245",54 ± 4 mPa·s
same,viscosity,"298.15 K, x2 = 0.4084",33 ± 2 mPa·s
same,mass density,"298.15 K, x2 = 0.4119",1225.85 ± 2.5 kg/m3
same,mass density,"298.15 K, x2 = 0.5939",1213.87 ± 2.2 kg/m3
same,viscosity,"298.15 K, x2 = 0.5976",19 ± 2 mPa·s
same,mass density,"298.15 K, x2 = 0.7669",1187.81 ± 1.9 kg/m3
same,viscosity,"298.15 K, x2 = 0.7675",10 ± 2 mPa·s
same,mass density,"298.15 K, x2 = 0.8487",1161.92 ± 1.6 kg/m3
same,mass density,"298.15 K, x2 = 0.9292",1109.14 ± 1.3 kg/m3
same,viscosity,"298.15 K, x2 = 0.9292",4 mPa·s
same,mass density,"298.15 K, x2 = 0.9683",1059.04 ± 0.93 kg/m3
same,mass density,"298.15 K, x2 = 0.9916",1016.78 ± 0.65 kg/m3
same,mass density,"308.15 K, x2 = 0",1230.61 ± 3.2 kg/m3
same,viscosity,"308.15 K, x2 = 0",62 ± 4 mPa·s
same,mass density,"308.15 K, x2 = 0.2112",1226.21 ± 2.8 kg/m3
same,viscosity,"308.15 K, x2 = 0.2245",36 ± 2 mPa·s
same,viscosity,"308.15 K, x2 = 0.4084",23 ± 2 mPa·s
same,mass density,"308.15 K, x2 = 0.4119",1219.02 ± 2.4 kg/m3
same,mass density,"308.15 K, x2 = 0.5939",1206.92 ± 2.1 kg/m3
same,viscosity,"308.15 K, x2 = 0.5976",14 ± 2 mPa·s
same,mass density,"308.15 K, x2 = 0.7669",1180.72 ± 1.8 kg/m3
same,viscosity,"308.15 K, x2 = 0.7675",8 ± 2 mPa·s
same,mass density,"308.15 K, x2 = 0.8487",1154.9 ± 1.6 kg/m3
same,mass density,"308.15 K, x2 = 0.9292",1103 ± 1.2 kg/m3
same,viscosity,"308.15 K, x2 = 0.9292",4 mPa·s
same,mass density,"308.15 K, x2 = 0.9683",1054.27 ± 0.9 kg/m3
same,mass density,"308.15 K, x2 = 0.9916",1013.26 ± 0.63 kg/m3
same,mass density,"318.15 K, x2 = 0",1223.9 ± 3.1 kg/m3
same,viscosity,"318.15 K, x2 = 0",41 ± 2 mPa·s
same,mass density,"318.15 K, x2 = 0.2112",1219.45 ± 2.7 kg/m3
same,viscosity,"318.15 K, x2 = 0.2245",26 ± 2 mPa·s
same,viscosity,"318.15 K, x2 = 0.4084",17 ± 2 mPa·s
same,mass density,"318.15 K, x2 = 0.4119",1212.21 ± 2.4 kg/m3
same,mass density,"318.15 K, x2 = 0.5939",1199.97 ± 2.1 kg/m3
same,viscosity,"318.15 K, x2 = 0.5976",11 ± 2 mPa·s
same,mass density,"318.15 K, x2 = 0.7669",1173.56 ± 1.8 kg/m3
same,viscosity,"318.15 K, x2 = 0.7675",6 ± 2 mPa·s
same,mass density,"318.15 K, x2 = 0.8487",1147.77 ± 1.6 kg/m3
same,mass density,"318.15 K, x2 = 0.9292",1096.59 ± 1.2 kg/m3
same,viscosity,"318.15 K, x2 = 0.9292",3 mPa·s
same,mass density,"318.15 K, x2 = 0.9683",1049.01 ± 0.87 kg/m3
same,mass density,"318.15 K, x2 = 0.9916",1009.03 ± 0.6 kg/m3
same,mass density,"328.15 K, x2 = 0",1217.23 ± 3 kg/m3
same,viscosity,"328.15 K, x2 = 0",30 ± 2 mPa·s
same,mass density,"328.15 K, x2 = 0.2112",1212.74 ± 2.7 kg/m3
same,viscosity,"328.15 K, x2 = 0.2245",19 ± 2 mPa·s
same,viscosity,"328.15 K, x2 = 0.4084",13 ± 2 mPa·s
same,mass density,"328.15 K, x2 = 0.4119",1205.41 ± 2.3 kg/m3
same,mass density,"328.15 K, x2 = 0.5939",1193.01 ± 2 kg/m3
same,viscosity,"328.15 K, x2 = 0.5976",9 ± 2 mPa·s
same,mass density,"328.15 K, x2 = 0.7669",1166.34 ± 1.7 kg/m3
same,viscosity,"328.15 K, x2 = 0.7675",6 ± 2 mPa·s
same,mass density,"328.15 K, x2 = 0.8487",1140.52 ± 1.5 kg/m3
same,mass density,"328.15 K, x2 = 0.9292",1089.92 ± 1.1 kg/m3
same,viscosity,"328.15 K, x2 = 0.9292",3 mPa·s
same,mass density,"328.15 K, x2 = 0.9683",1043.29 ± 0.83 kg/m3
same,mass density,"328.15 K, x2 = 0.9916",1004.16 ± 0.57 kg/m3
same,mass density,"338.15 K, x2 = 0",1210.6 ± 3 kg/m3
same,viscosity,"338.15 K, x2 = 0",21 ± 2 mPa·s
same,mass density,"338.15 K, x2 = 0.2112",1206.05 ± 2.6 kg/m3
same,viscosity,"338.15 K, x2 = 0.2245",15 ± 2 mPa·s
same,viscosity,"338.15 K, x2 = 0.4084",11 ± 2 mPa·s
same,mass density,"338.15 K, x2 = 0.4119",1198.63 ± 2.3 kg/m3
same,mass density,"338.15 K, x2 = 0.5939",1186.03 ± 2 kg/m3
same,viscosity,"338.15 K, x2 = 0.5976",7 ± 2 mPa·s
same,mass density,"338.15 K, x2 = 0.7669",1159.05 ± 1.7 kg/m3
same,viscosity,"338.15 K, x2 = 0.7675",5 ± 2 mPa·s
same,mass density,"338.15 K, x2 = 0.8487",1133.14 ± 1.5 kg/m3
same,mass density,"338.15 K, x2 = 0.9292",1083 ± 1.1 kg/m3
same,viscosity,"338.15 K, x2 = 0.9292",3 mPa·s
same,mass density,"338.15 K, x2 = 0.9683",1037.15 ± 0.79 kg/m3
same,mass density,"338.15 K, x2 = 0.9916",998.72 ± 0.56 kg/m3
same,mass density,"348.15 K, x2 = 0",1204.01 ± 2.9 kg/m3
same,viscosity,"348.15 K, x2 = 0",17 ± 2 mPa·s
same,mass density,"348.15 K, x2 = 0.2112",1199.4 ± 2.6 kg/m3
same,viscosity,"348.15 K, x2 = 0.2245",12 ± 2 mPa·s
same,viscosity,"348.15 K, x2 = 0.4084",9 ± 2 mPa·s
same,mass density,"348.15 K, x2 = 0.4119",1191.91 ± 2.2 kg/m3
same,mass density,"348.15 K, x2 = 0.5939",1179.05 ± 2 kg/m3
same,viscosity,"348.15 K, x2 = 0.5976",6 ± 2 mPa·s
same,mass density,"348.15 K, x2 = 0.7669",1151.68 ± 1.6 kg/m3
same,viscosity,"348.15 K, x2 = 0.7675",4 mPa·s
same,mass density,"348.15 K, x2 = 0.8487",1125.7 ± 1.4 kg/m3
same,mass density,"348.15 K, x2 = 0.9292",1075.83 ± 1.1 kg/m3
same,viscosity,"348.15 K, x2 = 0.9292",2 mPa·s
same,mass density,"348.15 K, x2 = 0.9683",1030.61 ± 0.75 kg/m3
same,mass density,"348.15 K, x2 = 0.9916",992.76 ± 0.59 kg/m3
